Data set [1] is described as follows: Chemical stability in aqueous solutions, degradation followed by HPLC. Format: physicochemical. On the procedure: The compounds were first dissolved in methanol (30%) or acetonitrile (50%) and then diluted to the final concentrations with water. The time-course of degradation was monitored by HPLC using an Agilent Technologies HPLC chromatograph 1200 Series equipped with a photo-diode array (PDA) detector, a binary-gradient high-pressure pump, and an automatic sampler. The column used was a LiChroCART® 125-4 LiChrospher® 100 RP-18 (5 μm, Merck Millipore) maintained at 25 °C. The solvents were (A) water + 0.1% formic acid and (B) acetonitrile, and the flow rate was 0.8 ml min^–1. The initial mobile phase, 95% A / 5% B, was held for 3 min and then ramped linearly to 100% B at 23 min and held for 5 min before resetting to the original conditions. The sample injection volume was 10 μl. PDA detection was by absorbance in the 200–600-nm wavelength range. Peak detection was at the optimum wavelength (254 nm) and peak areas were used for quantification. Initial and subsequent measurements of peak area attributable to the tested compound were used to fit exponential half-life curves and to calculate first-order rate constants. Stability data allowed for calculation of the time in hours for half of the tested compound to be hydrolysed (t1/2).
Natural and synthetic SLs are rather sensitive to hydrolysis at pH 7 and are readily decomposed through the cleavage of the D-ring at pH 9.38 ([Vurro et al., 2016]). Therefore, differences in activity among SL analogues may be attributed to their instability in the aqueous medium. In order to address this point, the stability in aqueous solutions of the newly synthesized SL-D-lactams was tested, and compared to the (+)-GR24 standard ([Kannan and Zwanenburg, 2014]; [Halouzka et al., 2018]). Two different conditions were considered, a 30% solution of MeOH in water and a 1:1 solution of acetonitrile in water. As expected, stability in MeOH was highly compromised for all compounds, but to a greater extent for analogues showing both the Michael acceptor function (enol ether bridge) and an unprotected N in the D-lactam ring, as for rac-3, rac-4, rac-5, and rac-7 (Table 1): after a few hours 50% of the compounds were degraded. This was not surprising from a chemical point of view, as the functional group in SL-D-lactams is an aminal, which is more prone to hydrolysis than the acetal of the natural SL skeleton. […] For rac-5, the NH compound in the EGO10 family, the half-life dropped to 2 h.

Data set [2] deals with Phelipanche aegyptiaca seeds. Briefly: Germination-inducing activity on parasitic seeds. Format: in vivo. As to conditions: for Fold lower potency than rac-GR24 (germination): compared with rac-GR24; for Concentration at which high germination activity was shown: high activity only at this concentration, germination normalized to rac-GR24 0.1 μM. The method, then:
Seeds of Phelipanche aegyptiaca were collected from field-grown tomato in the West Galilee region of Israel. The seeds were stored in glass vials in the dark at room temperature until their use in germination tests. For the preparation of test solutions, the compound to be tested was weighed out very accurately, dissolved in acetone at 10^–2 M and then diluted with sterile distilled water to the desired concentrations. All solutions were prepared just before use. Seeds were surface-sterilized and preconditioned as described by [Bhattacharya et al. (2009)]. Briefly, after exposure for 5 min to 50% (v/v) aqueous solutions of commercial bleach (2% hypochlorite), seeds were rinsed with sterile distilled water. For preconditioning, seeds were placed on glass fibre filter discs using a sterile toothpick (approximately 50 seeds per disc); the glass fibre discs were placed on two filter paper discs, wetted with sterile distilled water, and incubated at 25 °C in the dark for 6 d. The preconditioned seeds were then allowed to dry completely in a laminar flow cabinet, after which they were treated with each compound at five different concentrations: 10^–5 M, 10^–6 M, 10^–7 M, 10^–8 M, and 10^–9 M. Their germination rate was evaluated under a stereomicroscope 7 d after the beginning of the treatment. For each concentration, at least 250 seeds were scored; synthetic SL rac-GR24 was included as a positive control across the same range of concentrations, while a solution of 0.001% acetone in sterile distilled water was included as a negative control. Seeds were scored as germinated if the radicle protruded through the seed coat 1 week after treatment. Germination values were normalized to those of rac-GR24 at 10^–7 M.
Fig. 3. Germination-inducing activity on Phelipanche aegyptiaca seeds of rac-1–9 and of strigol, ST23b, EGO10, and EDOT at different concentrations, compared to rac-GR24 0.1 μM as a positive control and to acetone as a negative control. […] The x-axis indicates the range of concentrations. Data are means (±SD) of n>250 seeds. Confidence intervals at 95% are used to express errors of the means. The data for rac-1–9 are indicated by ‘D-lactams’.

Data set [3] addresses T1, AtD14 fused to firefly luciferase (D14::LUC) (Arabidopsis thaliana, UniProt Q9SQR3).
T1 construct: a pDONOR207 carrying the D14 promoter fused to the D14 CDS; expressed in transfected cells
T1 sequence (Q9SQR3 1-267): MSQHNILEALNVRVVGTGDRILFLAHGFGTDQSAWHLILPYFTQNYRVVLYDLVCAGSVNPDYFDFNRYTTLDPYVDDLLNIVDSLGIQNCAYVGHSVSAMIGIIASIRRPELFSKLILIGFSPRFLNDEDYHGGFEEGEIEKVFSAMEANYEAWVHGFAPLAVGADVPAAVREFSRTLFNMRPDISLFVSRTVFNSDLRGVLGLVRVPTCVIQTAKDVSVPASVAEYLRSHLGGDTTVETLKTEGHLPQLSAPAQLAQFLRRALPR
Put plainly: Luminometer (luciferase) assay: D14::LUC degradation in transgenic Arabidopsis seedlings. Conditions: for Activity in the luciferase assay at 1 μM: weaker than (+)-GR24; for D14 degradation in the luciferase assay: 0.01–100 μM range, racemic mixtures. Format: in vivo. On the procedure: A binary D14p::D14::LUC vector was obtained by LR-recombination (Invitrogen) of a pDONOR207 carrying the D14 promoter fused to the D14 CDS ([Chevalier et al., 2014]) in pGWB435 ([Nakagawa et al., 2007]). Transgenic D14::D14::LUC Arabidopsis plants were generated by agroinfiltration of Col-0 plants using the floral dip method ([Clough and Bent, 1998]). Seeds were surface-sterilized with an 8% aqueous solution of commercial bleach in distilled water for 5 min and rinsed five times with sterile distilled water. Sterile seeds were plated on MS medium (pH 5.8) ([Murashige and Skoog, 1962]) without sucrose solidified with 1.2% Agar, and kept at 4 °C for 3 d (stratification). Seeds were then incubated for 7 d in a growth chamber at 25 °C and a photoperiod of 16 h light/8 h dark. SL analogues and mimics (Figs 1, 2) were accurately weighed and dissolved in acetone at 10^–2 M. Five different concentrations (10^–4 M, 10^–5 M, 10^–6 M, 10^–7 M, 10^–8 M) were prepared by 1:10 serial dilutions in liquid MS medium, together with blank controls containing corresponding water and acetone volumes in the medium. D-Luciferin (potassium salt) stock was prepared at 25 mg ml^–1 in DMSO, aliquoted and stored at –80 °C until use; all other solutions were prepared just before the assay. Using tweezers, 7-d-old Arabidopsis seedlings were placed in a 96-well microtiter plate with their cotyledons facing up (one seedling per well, in 170 µl of liquid MS medium), and 15 µl of luciferin (0.125 mg ml^–1, diluted 1:200 in MS from stock) was added to each well, corresponding to 1.875 µg. The plate was covered with a transparent film with a hole poked above each well to allow for gas exchange. Measurements were taken every 15 min in a multimode reader (LB942 Tristar2 S, Berthold Technologies) for the following 24 h; the signal was allowed to stabilize for 2–3 h in the light before treatments were started by adding 15 µl per well of the different SLs in MS medium, thus reaching a final volume in each well of 200 µl and 9.4 µg ml^– of luciferin. Appropriate blank controls were added as well. Each treatment was applied to a minimum of 16 wells (seedlings), each of which was measured individually over time. The percentage efficacy of each compound molecule was calculated 6 h after treatment as a function of the decrease in D14::LUC-emitted luminescence with respect to (+)-GR24 1 µM (i.e. GR24^5DS), assuming that the latter, minus the drift of the corresponding blank control, had 100% efficacy. For calibration purposes, SL analogues that had already been characterized, namely (±)-ST23b, (±)-EGO10, and (±)-EDOT ([Prandi et al., 2011]), were tested across the same concentration range, along with (±)-strigol (Chiralix, NL). The half maximal-effective concentration (EC50) for (+)-GR24 was calculated by linear regression fitting of the data (n=5, with at least three individual seedlings and values being pooled for each replicate) at the different concentrations, minus the values for acetone-treated samples (negative controls) and normalized in relation to (+)-GR24 0.01 μM, which was set to 0%. Confidence intervals at 95% were used to express errors of the means.
D14 is a target for proteasome-dependent destruction upon interaction with its ligand(s), which explains why fluorescence of D14::GFP fusion proteins is quenched upon SL treatment in transgenic Arabidopsis ([Chevalier et al., 2014]). We exploited this molecular network to implement a quantitative activity assay that inversely correlated luminescence to perception of SL-related molecules in transgenic Arabidopsis expressing D14::LUC under the control of the D14 endogenous promoter. […] We then used the assay to test various SLs in the same range, namely strigol as an example of natural SLs; ST23b, EGO10, and EDOT (Fig. 1, all used as rac mixtures) as examples of active SL analogues; and the new set of SL-D-lactams rac-1–9 (Fig. 2).
Fig. 4. Luciferase assay. […]

The mark [4] stands for this setting: aqueous acetonitrile solution in HPLC vials, pH 6.7, 1:1 acetonitrile:water, 21 °C, pH 6.7, extrapolated from plots of peak area versus time, read-out: Half-life (t1/2, h) ACN:Water, 1:1 (converted).
The mark [5] stands for this setting: aqueous methanol solution in HPLC vials, pH 6.7, 30% MeOH in water, 21 °C, pH 6.7, extrapolated from plots of peak area versus time, read-out: Half-life (t1/2, h) 30% MeOH (converted).
[6] abbreviates: GraphPad fit, normalized with low acetone control.

Molecules are shown by their SMILES. Like-named read-outs stand apart in the source and are kept apart here.

Consider `CC1=C[C@H](O/C=C2/C(=O)O[C@@H]3c4ccccc4C[C@H]23)N(C(=O)OC(C)(C)C)C1=O` (racemic) [rac-1], for which, in data set [1] (setting [4]), the half-life at 200 μg ml^–1 is 720 h. In addition, the half-life at 200 μg ml^–1 in data set [1] (setting [5]) was 110 h. In data set [2], the “Fold lower potency than rac-GR24 (germination)” value is listed as ~ 100 fold and the “Concentration at which high germination activity was shown” value amounted to 10 µM.
For the molecule `CC1=C[C@H](O/C=C2/C(=O)O[C@H]3c4ccccc4C[C@@H]23)N(C(=O)OC(C)(C)C)C1=O` (racemic) [rac-2], the figures for the half-life at 200 μg ml^–1 in data set [1] (setting [4]) and in data set [1] (setting [5]) were 140 h and 21 h, respectively. Also, in data set [2] (tested 10^-9 to 10^-5 M), the “Concentration at which some germination activity could still be detected” value was found to be 1 µM.
Take `CC1=C[C@H](O/C=C2\Cc3c(n(C)c4ccccc34)C2=O)NC1=O` (racemic) [rac-5]: the half-life at 200 μg ml^–1 was 24 h in data set [1] (setting [4]) and 2 h in data set [1] (setting [5]).
The matching figures for `CC1=C[C@H](O/C=C2\Cc3c([nH]c4ccccc34)C2=O)N(C(=O)OC(C)(C)C)C1=O` (racemic) [rac-6]: 528 h and 190 h.
With `CC1=C[C@H](Oc2ccc(Br)cc2)NC1=O` (racemic) [rac-7], the half-life at 200 μg ml^–1 in data set [1] (setting [4]) is 17 h. The half-life at 200 μg ml^–1 in data set [1] (setting [5]) was 11 h. Further, in data set [2], the “Fold lower potency than rac-GR24 (germination)” value is listed as ~ 100 fold and the “Concentration at which high germination activity was shown” value was 10 µM.
In the case of `CC1=C[C@H](Oc2ccc(Br)cc2)N(C(=O)OC(C)(C)C)C1=O` (racemic) [rac-8], the half-life at 200 μg ml^–1 is 1080 h in data set [1] (setting [4]) and 230 h in data set [1] (setting [5]).
For the molecule `CC1=C[C@H](O/C=C2/C(=O)O[C@@H]3c4ccccc4C[C@H]23)OC1=O` (racemic) [rac-GR24, reference compound], in data set [2] (concentrations equal to or above), the “Concentration of maximum germination activity” value is not below 0.1 µM.
In the case of `CC1=C[C@H](O/C=C2/C(=O)O[C@@H]3c4ccccc4C[C@H]23)OC1=O` [(+)-GR24], the half-life at 200 μg ml^–1 in data set [1] (buffer, pH 6.7, Half-life (t1/2, h) 30% MeOH) is 80 h; in data set [1] (buffer, pH 6.7, Half-life (t1/2, h) ACN:Water, 1:1), 3380 h. Further, the “HILLSLOPE best-fit value (Table S1)” value in data set [3] (setting [6]) is 0.4764. The “LOGIC50 best-fit value (Table S1)” value in data set [3] (setting [6]) is reported as -5.791. The DC50 in data set [3] (read-out: EC50 (D14::LUC assay), 6 h after treatment, 0.01–100 μM, n=5) amounted to 1620 nM; in data set [3] (read-out: EC50 best-fit value (Table S1), GraphPad fit, normalized with low acetone control), 1620 nM.
As to `CC1=CC(O/C=C2/C(=O)c3c(c4cc(-c5scc6c5OCCO6)ccc4n3C)C2C)OC1=O` (centres unmarked) [EDOT], in data set [3], the “Activity in the luciferase assay at 1 μM” value was “significant activity” and the “D14 degradation in the luciferase assay” value is “induced high levels of D14 degradation”.
The matching figures for `CC1=CC(O/C=C2\Cc3c(n(C)c4ccccc34)C2=O)OC1=O` (centres unmarked) [EGO10]: “significant activity” and “induced high levels of D14 degradation”.
The matching figures for `CC1=CC(O/C=C2/C(=O)c3c(c4cc(-c5ccc(N(C)C)cc5)ccc4n3C)C2C)OC1=O` (centres unmarked) [ST23b]: “significant activity” and “induced high levels of D14 degradation”.
As to `CC1=C[C@H](O/C=C2/C(=O)O[C@@H]3C4=C(C[C@H]23)[C@@H](O)CCC4(C)C)OC1=O` [strigol], in data set [3], the “Activity in the luciferase assay at 1 μM” value was “significant activity” and the “D14 degradation in the luciferase assay” value was “induced high levels of D14 degradation”.

(Values after publication PMC5913603, “Structure–activity relationships of strigolactones via a novel, quantitative in planta bioassay” (Journal of Experimental Botany, 2018).)
